Results from patent US20070004634A1 (Novo Nordisk A/S, priority 1998, published 2007).
Values belong to the compound of their own block, whether it stands above or below them. Residues, ends and D or L forms follow the SMILES beside them.

Key:
IGF-1R [1] = target: T1, IGF-1R (Homo sapiens, UniProt P08069); test: Phage competition ELISA on IGF-1R; assay type: binding; design: included the heterotetrameric (alpha 2-beta 2) extracellular domain of IGF-1R; purchased R&D Systems 391-GR/CF; host or cells: mouse myeloma cell line; conditions: phage RP9, RP6, D8B12, D815
Experimental: Wells were blocked with 4% non-fat milk in PBS for 60 min at room temperature. One hundred microliters of rescued phage were added to each well. […] The labeled antibody was incubated at room temperature for 60 min. After washing, 100 μl of ABTS was added per well and the plates read in a microtiter reader at […]. […] (Site 2). Peptides included RP9 and […]. Phage competition studies were also performed with Site 2-Site 1 dimer peptides containing 6- or 12-amino acid linkers. […] Wells were blocked with 4% non-fat milk in PBS for 60 min at room temperature. One hundred microliters of rescued phage were added to each well. Peptides in varying concentrations were added and the mixture incubated for 2 h at room temperature. […] The labeled antibody was incubated for 60 min at room temperature. After washing, 100 μl of ABTS was added per well and the plates read in a microtiter reader at […]. […] Linker sequences are underlined and shown below.

[2] = tested on: FDC-P2 cells expressing the IL-3 and human IGF-1R receptors; test: IGF-1 proliferation assay in FDC-P2 cells, antagonist format; conditions: for antagonist activity at IGF-1R, in words / EC50: FDC-P2 cells; for FDC-P2 Antagonist: FDC-P2 cell proliferation, antagonist effect; for EC50: read-out: ED50, antagonist activity at IGF-1R, 10 ng/ml IGF-1 test medium
[3] = tested on: FDC-P2 cells expressing the IL-3 and human IGF-1R receptors; test: IGF-1 proliferation assay in FDC-P2 cells, agonist format; conditions: for agonist activity at IGF-1R, in words / EC50: FDC-P2 cells
[4] = target: T2, soluble human insulin receptor-immunoglobulin heavy chain chimera (sIR-Fc) (Homo sapiens, UniProt P06213); test: TR-FRET competition with biotinylated S175 (b-S175) for sIR-Fc; assay type: binding; conditions: target sIR-Fc, label b-S175; for Hill, sIR-Fc, b-S175, FRET: Hill slope
T2 construct: replacing the transmembrane domain and the intracellular domain of IR with constant domains from immunoglobulin Fc or λ subunits; made in house; host or cells: human embryonic kidney 293 cells (Bass et al.)

IGF-1R [5] = target: T1, IGF-1R; test: TR-FRET competition with biotinylated-20E2 for rhIGF-1R; conditions: TR-FRET (rhIGF-1R, b-20E2) versus FP (sIR-Fc), summary of Table 22
[6] = tested on: soluble human insulin mini-receptor (mIR); test: Fluorescence polarization, competition with FITC-RP9 for mIR; assay type: binding
Experimental: The FP assays were performed in a 384-well black microplate with a final volume of 30 μl.

[7] = target: T2, soluble human insulin receptor-immunoglobulin heavy chain chimera (sIR-Fc); test: TR-FRET competition with biotinylated RP9 (b-RP9) for sIR-Fc; assay type: binding; conditions: for Hill, sIR-Fc, b-RP9, FRET: Hill slope, target sIR-Fc, label b-RP9, TR-FRET
[8] = target: T2, soluble human insulin receptor-immunoglobulin heavy chain chimera (sIR-Fc); test: Fluorescence polarization, competition with FITC-RP9 for sIR-Fc; assay type: binding; conditions: for Hill, sIR-Fc, FITC-RP9, FP: Hill slope
[9] = target: T3, human insulin receptor (HIR) (Homo sapiens, UniProt P06213); test: Insulin receptor binding, competition with 125I-labeled insulin (HIR Kd); conditions: read-out: IC50 (nM), HIR, 125I-insulin, RRA; target HIR; label 125I-insulin; radio-receptor assay
T3 construct: made in house

[10] = tested on: free fat cells (adipocytes); test: Adipocyte / free fat cell (FFC) assay, 3H glucose incorporation into lipid
[11] = target: T4, soluble HIR ectodomain (sIR) (Homo sapiens, UniProt P06213); test: Fluorescence polarization, competition with FITC-RP9 for sIR; assay type: binding; conditions: Hill slope, target sIR, label FITC-RP9
T4 construct: soluble HIR ectodomain (sIR); Kristensen et al., 1998

MCF-7 cells [12] = conditions: MCF-7 cell proliferation, antagonist effect
IGF-1R [13] = target: T1, IGF-1R; test: TR-FRET dissociation of biotinylated-20E2 from rhIGF-1R; assay type: binding; conditions: peptides 100 μM, IGF-1 30 μM
Experimental: Best fit non-linear regression analysis of the data, was used to determine dissociation rate constants. Each data point represents a single observation. […] Reactions were allowed to reach equilibrium for 6 h at RT.

MiaPaCa cells [14] = conditions: MiaPaCa cell proliferation, antagonist effect
MiaPaCa cells [15] = test: MiaPaCa cell proliferation assay, IGF-1R agonist format; assay type: cell-based, human; conditions: MiaPaCa cell proliferation, agonist effect
MCF-7 cells [16] = test: MCF-7 cell proliferation assay, IGF-1R agonist format; assay type: cell-based, human; conditions: MCF-7 cell proliferation, agonist effect
Excerpt: ; FIGS. 65A-65F), and were used for subsequent experiments.

Insulin receptor = target: T5, Insulin receptor (Homo sapiens, UniProt P06213); test: BIAcore competition, IR binding to immobilized insulin
T5 construct: replacing the transmembrane domain and the intracellular domain of IR with constant domains from immunoglobulin Fc or λ subunits; made in house; host or cells: human embryonic kidney 293 cells (Bass et al.)
Experimental: Flowcell-1 was used for background binding to correct for any non-specific binding. […] The surface was regenerated with 25 mM NaOH.

[17] = target sIR-Fc, label FITC-RP9, fluorescence polarization
[18] = free fat cell assay class, Table 9
[19] = FFC assay potency grade, 0, + to ++++++, −

T1 sequence (P08069 31-736 limits assumed): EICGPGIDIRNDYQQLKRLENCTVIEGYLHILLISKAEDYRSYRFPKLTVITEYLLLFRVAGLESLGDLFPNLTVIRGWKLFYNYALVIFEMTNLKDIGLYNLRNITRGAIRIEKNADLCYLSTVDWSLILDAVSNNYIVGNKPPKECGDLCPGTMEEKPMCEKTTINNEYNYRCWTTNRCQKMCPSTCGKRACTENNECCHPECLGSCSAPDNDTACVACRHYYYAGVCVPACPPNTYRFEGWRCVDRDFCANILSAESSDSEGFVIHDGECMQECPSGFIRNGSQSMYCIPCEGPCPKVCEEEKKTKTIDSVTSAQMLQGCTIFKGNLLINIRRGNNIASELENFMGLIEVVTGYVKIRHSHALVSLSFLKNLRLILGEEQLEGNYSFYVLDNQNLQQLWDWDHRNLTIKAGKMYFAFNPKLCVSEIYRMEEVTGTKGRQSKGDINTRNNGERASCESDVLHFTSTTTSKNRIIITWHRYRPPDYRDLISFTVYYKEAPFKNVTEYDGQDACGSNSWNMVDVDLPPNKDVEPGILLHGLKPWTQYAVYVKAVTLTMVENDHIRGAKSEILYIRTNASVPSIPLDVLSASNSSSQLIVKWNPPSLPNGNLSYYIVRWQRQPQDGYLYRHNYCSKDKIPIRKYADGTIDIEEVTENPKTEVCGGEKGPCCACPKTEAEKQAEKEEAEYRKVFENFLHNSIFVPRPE
T1 sequence (P08069 741-935 limits assumed): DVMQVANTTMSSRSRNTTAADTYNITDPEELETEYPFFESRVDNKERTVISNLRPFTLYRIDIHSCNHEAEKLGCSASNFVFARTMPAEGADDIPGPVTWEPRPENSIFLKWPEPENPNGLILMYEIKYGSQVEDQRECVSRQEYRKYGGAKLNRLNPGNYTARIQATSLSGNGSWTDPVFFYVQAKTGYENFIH
T4 sequence (P06213 28-758 limits assumed): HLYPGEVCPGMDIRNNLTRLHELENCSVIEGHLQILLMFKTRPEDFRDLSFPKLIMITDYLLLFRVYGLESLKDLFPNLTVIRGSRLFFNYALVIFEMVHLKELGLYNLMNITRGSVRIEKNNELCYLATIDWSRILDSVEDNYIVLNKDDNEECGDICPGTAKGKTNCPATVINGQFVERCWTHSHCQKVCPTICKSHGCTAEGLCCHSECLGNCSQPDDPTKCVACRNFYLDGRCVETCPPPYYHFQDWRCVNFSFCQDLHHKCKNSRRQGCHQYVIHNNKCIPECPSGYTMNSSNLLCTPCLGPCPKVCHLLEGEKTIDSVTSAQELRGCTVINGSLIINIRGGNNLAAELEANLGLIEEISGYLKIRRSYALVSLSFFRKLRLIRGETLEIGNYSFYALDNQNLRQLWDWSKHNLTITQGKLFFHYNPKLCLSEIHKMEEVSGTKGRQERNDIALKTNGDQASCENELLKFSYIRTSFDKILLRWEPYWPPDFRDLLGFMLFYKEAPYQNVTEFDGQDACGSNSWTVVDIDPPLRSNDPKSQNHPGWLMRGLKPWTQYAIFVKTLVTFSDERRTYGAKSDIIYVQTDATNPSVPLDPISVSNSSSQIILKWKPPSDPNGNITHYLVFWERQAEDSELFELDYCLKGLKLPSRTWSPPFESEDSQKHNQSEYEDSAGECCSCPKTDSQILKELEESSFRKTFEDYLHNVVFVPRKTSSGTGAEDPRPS
T4 sequence (P06213 763-956 limits assumed): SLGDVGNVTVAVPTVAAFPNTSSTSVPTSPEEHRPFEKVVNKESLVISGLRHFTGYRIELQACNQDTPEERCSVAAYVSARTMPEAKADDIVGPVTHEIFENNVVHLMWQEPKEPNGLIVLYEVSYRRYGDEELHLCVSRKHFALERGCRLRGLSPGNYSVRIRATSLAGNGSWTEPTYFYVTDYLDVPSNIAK
T2 sequence (P06213 28-758 limits assumed, stated change not applied): as the sequence (P06213 28-758 limits assumed) above
T2 sequence (P06213 763-956 limits assumed, stated change not applied): as the sequence (P06213 763-956 limits assumed) above
T5 sequence (P06213 28-758 limits assumed): as the sequence (P06213 28-758 limits assumed) above
T5 sequence (P06213 763-956 limits assumed): as the sequence (P06213 763-956 limits assumed) above
T3 sequence (P06213 28-758 limits assumed): as the sequence (P06213 28-758 limits assumed) above
T3 sequence (P06213 763-1382 limits assumed): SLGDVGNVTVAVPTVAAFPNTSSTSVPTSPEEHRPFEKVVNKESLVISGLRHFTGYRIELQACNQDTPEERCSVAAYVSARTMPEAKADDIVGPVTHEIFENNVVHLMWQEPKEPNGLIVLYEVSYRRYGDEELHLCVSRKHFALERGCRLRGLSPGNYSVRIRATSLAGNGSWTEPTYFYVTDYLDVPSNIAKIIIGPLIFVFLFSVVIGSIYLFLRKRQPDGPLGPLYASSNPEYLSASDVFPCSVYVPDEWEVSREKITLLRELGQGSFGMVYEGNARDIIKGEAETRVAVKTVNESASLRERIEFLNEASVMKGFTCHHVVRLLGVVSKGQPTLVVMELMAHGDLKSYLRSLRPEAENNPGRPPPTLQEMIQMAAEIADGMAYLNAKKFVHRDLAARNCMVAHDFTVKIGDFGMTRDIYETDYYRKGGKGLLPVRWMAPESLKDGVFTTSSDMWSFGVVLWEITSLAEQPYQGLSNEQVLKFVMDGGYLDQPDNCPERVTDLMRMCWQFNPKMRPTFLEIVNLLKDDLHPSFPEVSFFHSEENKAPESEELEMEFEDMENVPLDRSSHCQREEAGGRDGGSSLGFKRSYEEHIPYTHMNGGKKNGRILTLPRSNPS

Compound: CC(C)C[C@H](NC(=O)[C@H](Cc1c[nH]c2ccccc12)NC(=O)[C@H](CCC(=O)O)NC(=O)[C@H](Cc1ccc(O)cc1)NC(=O)CNC(=O)[C@@H]1CCCN1C(=O)[C@H](Cc1c[nH]c2ccccc12)NC(=O)[C@@H](NC(=O)[C@@H](NC(=O)CNC(=O)CN)[C@@H](C)O)C(C)C)C(=O)N[C@@H](CCCNC(=N)N)C(=O)N[C@@H](CC(N)=O)C(=O)N[C@@H](C)C(=O)O [Peptide E8]
- Hill, sIR-Fc, b-S175, FRET [4]: −0.74
- IC50 [4]: 755 nM
- binding to IGF-1R compared with IR, in words (IGF-1R [5]): comparable binding to IGF-1R and IR
- competition with peptide ligands such as FITC-RP9 for binding to mIR [6]: did not compete
- IC50 ([6]; target mIR, label FITC-RP9, fluorescence polarization, read-out: IC50 (nM), mIR, FITC-RP9, FP): > 100000 nM
- competition with FITC-RP9 or b-RP9 peptides for binding to sIR-Fc [7]: able to compete
- Hill, sIR-Fc, FITC-RP9, FP [8, 17]: −0.49
- IC50 ([8]; target sIR-Fc, label FITC-RP9, fluorescence polarization, read-out: IC50 (nM), sIR-Fc, FITC-RP9, FP): 207 nM
- IC50 ([8]; vs. FITC-RP9, read-out: FP sIR-Fc IC50): 206 nM
- IC50 [9]: 2200 nM
- FFC [10, 18]: −

Compound: CC(C)C[C@H](NC(=O)[C@H](CCC(N)=O)NC(=O)[C@H](CCCNC(=N)N)NC(=O)[C@H](CCC(=O)O)NC(=O)[C@H](Cc1ccccc1)NC(=O)[C@H](Cc1c[nH]c2ccccc12)NC(=O)[C@H](CC(=O)O)NC(=O)[C@H](Cc1ccc(O)cc1)NC(=O)[C@H](Cc1ccccc1)NC(=O)[C@H](CO)NC(=O)[C@@H](N)CCC(=O)O)C(=O)NCC(=O)O [Peptide S390]
- Hill, sIR-Fc, b-S175, FRET [4]: −0.49
- Hill, sIR, FITC-RP9, FP [11]: −0.64
- Hill, sIR-Fc, b-RP9, FRET [7]: −0.49
- activity in the free fat cell (FFC) assay / at IR, in words [10]: potency similar to full-length RP9 monomer peptides
- FFC ([10]; Table 6, free fat cell assay): +
- FFC [10, 18]: +
- FFC ([10]; free fat cell assay potency class, Table 7): +

Compound: CC(C)C[C@H](NC(=O)[C@H](CS)NC(=O)[C@H](CO)NC(=O)[C@H](Cc1ccc(O)cc1)NC(=O)[C@H](Cc1ccccc1)NC(=O)[C@@H](N)[C@@H](C)O)C(=O)N[C@@H](C)C(=O)N[C@@H](CO)C(=O)N[C@@H](CC(C)C)C(=O)N[C@@H](CC(C)C)C(=O)N[C@H](C(=O)NCC(=O)N[C@H](C(=O)N1CCC[C@H]1C(=O)N[C@@H](CCC(N)=O)C(=O)N1CCC[C@H]1C(=O)N[C@@H](CC(N)=O)C(=O)N[C@@H](CCCNC(=N)N)C(=O)NCC(=O)N1CCC[C@H]1C(=O)N[C@@H](Cc1c[nH]c2ccccc12)C(=O)N[C@@H](CCC(=O)O)C(=O)N[C@@H](CCCNC(=N)N)C(=O)N[C@@H](CS)C(=O)N[C@@H](CCCNC(=N)N)C(=O)O)[C@@H](C)O)[C@@H](C)O [RP6] (H-TFYSCLASLLTGTPQPNRGPWERCR-OH; N-terminus and C-terminus assumed)
- MCF-7 Antagonist (MCF-7 cells [12]): +
- effect on the rate of dissociation of b-20E2 from IGF-1R (IGF-1R [13]): dissociation rates of b-20E2 were similar
- MiaPaCa Antagonist (MiaPaCa cells [14]): No
- FDC-P2 Antagonist [2]: +
- antagonist activity at IGF-1R, in words [2]: acted as an antagonist
- EC50 [2]: ~1000 nM
- MiaPaCa Agonist (MiaPaCa cells [15]): No
- agonist activity at IGF-1R, in words [3]: no agonist activity

Compound: GSLDESFYDWFERQLGKK [Peptide S371]
- MCF-7 Agonist (MCF-7 cells [16]): No
- Hill, sIR-Fc, b-S175, FRET [4]: −0.45
- binding to IGF-1R compared with IR, in words (IGF-1R [5]): lower binding ratios for IGF-1R over IR
- Hill, sIR, FITC-RP9, FP [11]: −0.29
- competition of Site 1 and Site 2 phage on IGF-1R (IGF-1R [1]): competed both Site 1 and Site 2 phage
- Hill, sIR-Fc, b-RP9, FRET [7]: −0.69
- MCF-7 Antagonist (MCF-7 cells [12]): No
- potency / affinity at IR, in words ([8]; FP with FITC-RP9, summary of Table 22): slightly less potent
- Hill, sIR-Fc, FITC-RP9, FP [8, 17]: −0.41
- MiaPaCa Antagonist (MiaPaCa cells [14]): No
- FDC-P2 Antagonist [2]: +
- EC50 [2]: ~7000 nM
- MiaPaCa Agonist (MiaPaCa cells [15]): No
- agonist activity at IGF-1R, in words [3]: no agonist activity
- Class ([3]; IGF-1R agonist or antagonist): N
- FFC [10, 19]: +
- FFC ([10]; Table 5, free fat cell assay): +
- FFC ([10]; Table 6, free fat cell assay): +

Compound: KWLDQEWAWVQCEVYGRGCPSKK [Peptide D8]
- % Binding (Insulin receptor; Table 13, peptide about 40 μM, IR 450 nM, IR alone 100): 33%

More lines, main results first:

- competition of Site 1 and Site 2 phage on IGF-1R (IGF-1R [1]): competed both Site 1 and Site 2 phage
Compound: CC[C@H](C)[C@@H]1NC(=O)[C@H](CCC(=O)O)NC(=O)[C@@H](NC(=O)[C@H](Cc2c[nH]c3ccccc23)NC(=O)[C@H](CC(C)C)NC(=O)[C@H](Cc2c[nH]c3ccccc23)NC(=O)[C@H](C)NC(=O)[C@H](CCCNC(=N)N)NC(=O)[C@H](CCC(=O)O)NC(=O)[C@H](CCC(N)=O)NC(=O)[C@H](CC(=O)O)NC(=O)[C@H](CC(C)C)NC(=O)[C@@H](N)Cc2c[nH]c3ccccc23)CSSC[C@@H](C(=O)N[C@@H](CC(C)C)C(=O)N[C@@H](CO)C(=O)O)NC(=O)CNC(=O)[C@H](CCCNC(=N)N)NC(=O)CNC(=O)[C@H](CO)NC1=O [Peptide D815]
- antagonist activity at IGF-1R, in words [2]: no antagonist activity
- FDC-P2 Agonist ([3]; FDC-P2 cell proliferation, agonist effect): +
- agonist activity at IGF-1R, in words [3]: IGF-1R agonist activity
- EC50 ([3]; read-out: ED50, agonist activity at IGF-1R): ~2000 nM

- Hill, sIR-Fc, b-S175, FRET [4]: −0.58
- binding to IGF-1R compared with IR, in words (IGF-1R [5]): high binding ratios for IGF-1R over IR
- Hill, sIR, FITC-RP9, FP [11]: −0.36
- Hill, sIR-Fc, b-RP9, FRET [7]: −0.74
- Hill, sIR-Fc, FITC-RP9, FP [8, 17]: −0.56
Compound: CC(C)C[C@H](NC(=O)[C@H](CCC(=O)O)NC(=O)[C@H](C)NC(=O)[C@@H](NC(=O)[C@H](Cc1ccccc1)NC(=O)[C@H](Cc1c[nH]c2ccccc12)NC(=O)[C@H](CC(=O)O)NC(=O)[C@H](Cc1ccc(O)cc1)NC(=O)[C@H](Cc1ccccc1)NC(=O)[C@H](CC(N)=O)NC(=O)[C@H](C)NC(=O)[C@H](CC(N)=O)NC(=O)[C@H](CCCNC(=N)N)NC(=O)[C@H](CCC(N)=O)NC(=O)[C@H](CC(C)C)NC(=O)[C@H](Cc1c[nH]c2ccccc12)NC(=O)[C@H](CC(=O)O)NC(=O)[C@@H](NC(=O)[C@H](CCCNC(=N)N)NC(=O)CN)C(C)C)C(C)C)C(=O)NCC(=O)O [Peptide S175]
- agonist activity at IGF-1R, in words [3]: IGF-1R agonist activity
- EC50 ([3]; read-out: Cellular EC50, stimulation of proliferation): 10000 nM
- FFC [10, 19]: +++

- Result (RUs) (Insulin receptor; Table 12, IR 450 nM pre-incubated with insulin […], A7 (20A4)-MBP 4.1 μM, D8-MBP […], D10-MBP 3.4 μM, 447-MBP 11.5 μM or MBP 13 μM, IR alone 220 RU): 209 RUs
Compound: maltose binding protein [MBP, reference compound]
